Experimental findings from article PMC2832019, “In Vitro Metabolic and Mitogenic Signaling of Insulin Glargine and Its Metabolites” (PLoS ONE, 2010) are described below.

One assay concerns human IR-A. Kind of assay: Competitive receptor binding (SPA), IR-A. The conditions noted are these: for difference in affinity between IR-A and IR-B: IR-A vs IR-B, in words; for IC50: SPA, WGA PVT PEI beads, 2 µg membranes from CHO cells overexpressing IR-A, 100 pmol/L A14[^125I]-insulin, pH 7.8, 12 h, 23°C, means ± SEM, at least three times, read-out: IR-A affinity IC50; for IR-A binding, less active than human insulin: decrease relative to human insulin; for higher affinity for IR-A than IR-B: IR-A relative to IR-B. As to the method:
The binding of the different insulins to the human IR-A and IR-B was analyzed in a competitive binding assay using the scintillation proximity assay as previously described, [30]. […] Briefly, cells were grown to confluence and gently detached, transferred to a centrifugation tube followed by centrifugation for 10 minutes at 600×g at 4°C. The pellet was resuspended in ice-cold 2.25 STM buffer (2.25 mol/L sucrose, 5 mmol/L Tris-HCl pH 7.4, 5 mmol/L MgCl2, 1x Complete Protease Inhibitor) and disrupted using a hand-held Dounce homogenizer followed by sonication. This homogenate was transferred to a centrifugation tube, overlaid with 0.8 STM buffer (0.8 mol/L sucrose, 5 mmol/L Tris-HCl pH 7.4, 5 mmol/L MgCl2, 1x Complete Protease Inhibitor) and centrifuged for 90 minutes at 100 000×g at 4°C. The emerging pellicle at the interface was collected, transferred to a new tube and washed two times with PBS by centrifugation for 10 minutes at 1500×g. The final pellet was resuspended in a small volume of dilution buffer (50 mmol/L Tris-HCl pH 7.4, 5 mmol/L MgCl2, 1x Complete Protease Inhibitor) and homogenized with a Dounce homogenizer. These plasma membrane preparations were stored until usage at –80°C.
(§1) Binding experiments were conducted in 96-well microplates. Per well 2 µg of membranes were incubated with 0.25 mg wheat germ agglutinin polyvinyltoluene polyethylenimine SPA beads, 100 pmol/L A14[^125I]-insulin and various concentrations of unlabeled insulins in a binding buffer containing 0.05 mol/L Tris-HCl pH 7.8, 0.15 mol/L NaCl, 0.1% BSA, Complete Protease Inhibitor for 12 hours at room temperature (23°C). The radioactivity was measured at equilibrium in a microplate scintillation counter (Wallac Microbeta, Freiburg, Germany).
(§2) For each experiment, IC50 or EC50 values were obtained using the 4-parameter logistic model according to Ratkowsky and Reedy (1986). The adjustment was obtained by non-linear regression using the Levenberg-Marquardt algorithm in SAS v9.1.3 software via Biost@t-Speed V2.0-LTS internal application. If necessary, lower and upper asymptotes were set to 0 and 100, respectively.
The binding of a constant concentration of [^125I]insulin to plasma membranes from CHO cells overexpressing either IR-A or IR-B was measured in presence of increasing concentrations of unlabeled competing ligand after incubation at room temperature for 12 h. All data has been corrected for non-specific binding and are expressed as percentage of [^125I]insulin in absence of competing ligand. To analyze the insulin-stimulated activation and subsequent autophosphorylation of the insulin receptor CHO cells overexpressing the human IR-A (C) or IR-B (D) were stimulated for 15 min at 37°C with increasing concentrations of peptides, then the cells were fixed with 3.7% PFA and the amount of phosphotyrosines was analyzed via In-Cell Western. The data represent mean values ± SEM of at least 3 individual experiments measured in quadruplicate.

The target in the next assay is human IGF1R. In words: Competitive binding, IGF1R. The conditions noted are these: for IC50: [^125I]IGF-1 as radioactive ligand, means ± SEM, at least three times, read-out: IGF1R affinity IC50. As to the method:
as §1, §2
(§3) Figure 4 Activity of insulin analogs on the human IGF1R and mitogenic potential in Saos-2 cells. Analysis of binding to the human IGF1R using [^125I]IGF-1 as radioactive ligand (A) and analysis of the insulin-stimulated autophosphorylation of the human IGF1R overexpressed in MEF cells (B) were done as described in figure 2 and Materials and Methods. Data are given as means ± SEM. […] Confluent cells were starved for 4 h and then incubated for 19 h with increasing concentrations of IGF-1, insulin or analog in serum free medium. [^14C]thymidine was added for further 6 h and the radioactivity measured in a Wallac Micro Scintillation counter. Data are given as means ± SEM from octuplicate sample.

A further assay relates to Saos-2 cells. In words: Mitogenic potency: thymidine incorporation in Saos-2 cells. The class given is cell-based, human. As to conditions: for EC50: [2-^14C]-thymidine incorporation, 19 h stimulation plus 6 h thymidine, serum-free, 37°C, octuplicate samples, means ± SEM, at least three times; for mitogenicity in words: relative to glargine and human insulin. The method, then:
The human osteosarcoma cell line Saos-2 was obtained in frozen aliquots from the European Collection of Cell Cultures (ECACC, Salesbury, UK). Cells were grown in McCoy's 5a medium (Gibco, Grand Island, NY, USA) supplemented with 10% fetal calf serum (PAN Biotech GmbH, Aidenbach, Germany) and 2 mM (final) L-glutamine (Sigma Aldrich, Irvine, UK). Subconfluent cultures (9-15×10^6 cells per 225 cm^2 flask) were used to determine the mitogenic activity of the test compounds.
For measuring thymidine incorporation 40,000 cells were seeded per well of a 96-well Cytostar-T scintillation microplate (GE Healthcare, Amersham, UK) and the plates were incubated overnight at 37°C in a humidified atmosphere containing 5% CO2. The serum-containing medium was removed and replaced by 200 µL serum-free McCoy's 5a medium supplemented with 0.5% (w/v) BSA (Gibco, Grand Island, NY, USA), 2 mM L-glutamine and antibiotics (penicillin 100 units, streptomycin 100 units, amphotericin B 0.25 µg/mL final, Gibco, Grand Island, NY, USA). The plates were incubated for 4 hours at 37°C in a humidified atmosphere containing 5% CO2. 150 µL of the medium were removed and substituted by 150 µL of serum-free medium containing the different insulins or IGF-1 (Cell Sciences, Canton, MA, USA) at the indicated concentrations and the plates were incubated at 37°C in a humidified atmosphere containing 5% CO2. After 19 hours 10 µL of [2-^14C]-thymidine solution ([…], 3.7 MBq/mL) diluted in serum-free McCoy's 5a medium were added per well to yield a final concentration of 500 nCi/mL and the plates were incubated for 6 hours at 37°C in a humidified atmosphere containing 5% CO2. ^14C-thymidine incorporation was measured in a Wallac 1450 Micro Beta Trilux Scintillation counter. Dose-response curves were obtained by testing ten different concentrations of the ligands with every concentration tested by octuplicate samples.
as §2, §3
(In general: Uptake of a labelled nucleoside into DNA is a usual measure of proliferation.)

As for [Gly^A21,Arg^B31]insulin [Glargine IM], in the assay on human IR-A, the “difference in affinity between IR-A and IR-B” value (from here on “difference”) is on record as “no difference”; the half-maximal inhibitory concentration (IC50) (in general, the point on the concentration scale where inhibition reaches its midpoint) stood at 0.78 ± 0.03 nM; the “IR-A binding, less active than human insulin” value was 40–50%. For the same substance, the IC50 at human IGF1R turned out to be 80 ± 10.2 nM. Moreover, in the assay with Saos-2 cells, the EC50 (commonly the concentration giving half of the maximal effect) was 3.75 ± 0.31 nM and the mitogenicity in words result was “reduced relative to insulin glargine”.

Take [Asp^B10]insulin: in the assay with human IR-A, the “higher affinity for IR-A than IR-B” value worked out at 3.5 fold and the half-maximal inhibitory concentration (IC50) came to 0.06 ± 0.01 nM. Also, in the assay on human IR-A (relative to human insulin), the “IR-A binding, more potent relative to human insulin” value is 8.2 fold. Moreover, the half-inhibitory concentration (IC50) at human IGF1R is 104 ± 12.8 nM. In addition, the EC50 in the assay with Saos-2 cells was found to be 1.52 ± 0.15 nM.

With “Human insulin: human insulin produced by recombinant DNA techniques or enzymatic semisynthesis”, the EC50 in the assay with Saos-2 cells stood at 12.2 ± 0.27 nM.

On to “IGF-1: IGF-1 obtained from R&D Systems and Cell Sciences”, for which, in the assay on human IR-A, the “higher affinity for IR-A than IR-B” value amounted to 2.7 fold and the IC50 is 64.5 ± 5.1 nM. The “IR-A affinity less potent than human insulin” value with human IR-A (IR-A, relative to human insulin) was “approximately 130 fold”. In addition, the concentration for half-maximal inhibition (IC50) at human IGF1R amounted to 0.89 ± 0.19 nM. The concentration for a half-maximal effect (EC50) in the assay on Saos-2 cells was 0.22 ± 0.05 nM.

As to [Gly^A21]insulin [Glargine M1], in the assay on human IR-A, the “difference” value was “no difference”; the concentration for half-maximal inhibition (IC50) was 1.02 ± 0.03 nM; the “IR-A binding, less active than human insulin” value is 40–50%. In addition, at human IGF1R, the IC50 came out at 649 ± 31.9 nM and the “IGF1R affinity in words” value is “significantly reduced”. Moreover, in the assay on Saos-2 cells, the concentration giving a half-maximal response (EC50) amounted to 16.2 ± 2.35 nM; the mitogenicity in words result was “significantly less mitogenic than glargine and comparable to normal insulin”.

Take “[Gly^A21,des-Thr^B30]insulin [Glargine M2]”: in the assay with human IR-A, the “difference” value is reported as “no difference”; the IC50 was determined as 0.93 ± 0.16 nM; the “IR-A binding, less active than human insulin” value is listed as 40–50%. Besides, at human IGF1R, the 50% inhibitory concentration (IC50) was determined as 427 ± 20.6 nM and the “IGF1R affinity in words” value was “significantly reduced”. In the assay on Saos-2 cells, the half-maximal effective concentration (EC50) came out at 17.9 ± 6.5 nM; the mitogenicity in words result is “significantly less mitogenic than glargine and comparable to normal insulin”.

On to “[Gly^A21,Arg^B31,Arg^B32]insulin [Glargine]”, for which, in the assay on human IR-A, the “difference” value is “no difference”; the half-maximal inhibitory concentration (IC50) came out at 0.83 ± 0.08 nM; the “IR-A binding, less active than human insulin” value is recorded as 40–50%. The IC50 on human IGF1R was 63.2 ± 19.9 nM. The concentration for a half-maximal effect (EC50) with Saos-2 cells was found to be 1.61 ± 0.26 nM.
